Experimental data published in US20210128735A1, “BIOCOMPATIBLE COPOLYMER CONTAINING MULTIPLE ACTIVE AGENT MOLECULES” (priority 2018, published 2021).
Read-outs that look alike come from different tables or passages of the source.

System: HepG2 cells
Experiment: Exploratory toxicity: eight cell health parameters (CHP) by automated fluorescent cellular imaging (ArrayScan)
Type: cell-based
Conditions: for MTD (row Cell count): concentration at which <20% cell loss was observed; for AC50: Homo sapiens
Protocol: The polymeric carriers of this disclosure are not biodegradable. […] An exploratory toxicity study of a polymeric carrier of the present disclosure (without payload) was performed. Briefly, HepG2 cells were plated on 96-well black walled, clear bottomed polystyrene plates at 100 μL per well. Test compound was a H2N-G3-Cellophil copolymer (12 kDa) containing DMA and AK (90/10 mol %) that was prepared by the procedure described in example 13, step 7. The HepG2 cells were dosed with test compound at concentrations from 0.04 to 100 μM. At the end of 72-h incubation at 37° C., appropriate dies or antibodies were added to the cultures. The plates were then scanned using an automated fluorescent cellular imager (ArrayScan®, Thermo Scientific Cellomics).
The following eight cell health parameters (CHP) were evaluated:
Cell count: A decreasing number of cells per well indicates toxicity due to necrosis, apoptosis or a reduction in cellular proliferation. Nuclear size: An increase in nuclear area can indicate necrosis or G2 cell cycle arrest, and a decrease can indicate apoptosis. DNA structure: An increase in DNA structure can indicate chromosomal instability and DNA fragmentation. Mitochondrial mass: A decrease in mitochondrial mass indicates loss of total mitochondria and an increase implies mitochondrial swelling or an adaptive response to cellular energy demands. Mitochondrial membrane potential (Δψm): A decrease indicates a loss of mitochondrial integrity, typically resulting in apoptotic signaling; an increase in mitochondrial membrane potential indicates an adaptive response to cellular energy demands. Oxidative stress: An increase in reactive oxygen species (ROS) is an early cytotoxic response. Glutathione content: A decrease in glutathione (GSH) content can result from production of ROS or from direct binding to tested compound. An increase in GSH content represents an adaptive cellular response to oxidative stress. Cellular ATP: After cell lysis, ATP is released from the cell. Cells which are not metabolically active will not release any ATP. Therefore, a decrease in metabolically active cells will result in a decrease in the level of ATP detected.

[1] = HepG2, 72-h incubation, NR = no response

| SMILES | MEC, Cell count (HepG2, 72-h incubation at 37° C., 0.04 to 100 μM, MEC = lowest dose at which an effect is detected, NR = no response) | MEC, Cellular ATP [1] | MEC, Nuclear size [1] | MEC, Oxidative stress [1] | MEC, DNA structure (HepG2, 72-h incubation, NR = no response, NS = not statistical significant) | MTD (row Cell count) [1] | AC50 (HepG2, 72-h incubation, NR = no response, NS = not statistical significant, read-out: AC50, DNA structure) | AC50 (HepG2, 72-h incubation, NR = no response, read-out: AC50, Cellular ATP) | AC50 (HepG2, 72-h incubation, NR = no response, read-out: AC50, Glutathione content) | AC50 (HepG2, 72-h incubation, NR = no response, read-out: AC50, Mitochondrial mass) | AC50 (HepG2, 72-h incubation, NR = no response, read-out: AC50, Mitochondrial membrane potential) | AC50 (HepG2, 72-h incubation, NR = no response, read-out: AC50, Nuclear size) | AC50 (HepG2, 72-h incubation, NR = no response, read-out: AC50, Oxidative stress) | AC50 (HepG2, 72-h incubation, concentration at which 50% of the maximum effect is observed, NR = no response, read-out: AC50, Cell count) | MEC, Cellular ATP | MEC, Glutathione content |
| --- | --- | --- | --- | --- | --- | --- | --- | --- | --- | --- | --- | --- | --- | --- | --- | --- |
| N#CC(C#N)=NNc1cccc(Cl)c1 [control 1, carbonyl cyanide 3-chlorophenylhydrazone] | 1.73 µM | 3.13 µM | 3.76 µM | 0.539 µM | 0.63 µM | 2 µM | 46.7 µM | 4.15 µM | > 100 µM | > 100 µM | > 100 µM | 8.09 µM | 22.4 µM | 2.54 µM |  |  |
| CCCCS(=N)(=O)CCC(N)C(=O)O [control 2, L-buthionine-sulfoximine] |  |  |  |  |  | 40 µM |  |  |  |  |  |  |  |  | 14.4 µM | 1.7 µM |
